From US11524960B2, “Heterobicyclic inhibitors of MAT2A and methods of use for treating cancer” (AGIOS PHARMACEUTICALS, INC., priority 2018, dated 2022)

Columns and labels:
MAT2A homodimer = molecular target: T1, MAT2A homodimer (Homo sapiens, UniProt P31153); test: Biochemical assay: inhibition of MAT2A (phosphate release, PiColorLock Gold); settings: MAT2A IC50 score; read-out: Enzyme Inhibition (Example 275)
T1 construct: inferred from Ni sepharose purification and imidazole elution; made in house; host or cells: Sf9 insect cells, recombinant baculovirus (Bac to Bac, pFASTBAC1)
T1 sequence (P31153 whole entry): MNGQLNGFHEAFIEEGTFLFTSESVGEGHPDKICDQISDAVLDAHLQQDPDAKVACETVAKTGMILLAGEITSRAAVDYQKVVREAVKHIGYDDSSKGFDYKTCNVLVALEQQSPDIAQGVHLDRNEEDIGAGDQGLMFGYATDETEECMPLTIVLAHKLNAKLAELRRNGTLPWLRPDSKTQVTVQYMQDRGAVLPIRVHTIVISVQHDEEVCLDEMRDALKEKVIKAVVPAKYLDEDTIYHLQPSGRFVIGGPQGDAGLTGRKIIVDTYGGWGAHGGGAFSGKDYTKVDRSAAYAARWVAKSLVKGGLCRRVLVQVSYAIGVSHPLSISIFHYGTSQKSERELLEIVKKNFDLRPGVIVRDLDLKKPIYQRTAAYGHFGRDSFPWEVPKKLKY
In short: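 Baculovirus/Sf9-expressed, Ni-purified MAT2A at 4 µg/mL was preincubated with compound for 60 min at 25 °C in 50 mM Tris pH 8.0, 50 mM KCl, 15 mM MgCl2, 0.3 mM EDTA, 0.005% BSA. Substrate mix (500 μM ATP, 400 μM L-methionine) was added and the reaction ran 60 min at 25 °C. Phosphate released stoichiometrically with SAM was measured colorimetrically against a phosphate standard curve.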

[1] = tested on: SAM in HCT116 human colon carcinoma cell line engineered to delete the MTAP gene (MTAP −/−); test: Cellular assay of target engagement (SAM) by LC-MS/MS; format: cell-based; settings: Homo sapiens, HCT-116, 72 h, IC50 score, read-out: Cell 72 h SAM Inhibition (MTAP −/−; Example 276)
In short: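 MTAP-deleted HCT116 cells were dosed 24 h after plating with a 10-point 3-fold compound series in DMSO, then incubated 72 h at 37 °C/5% CO2. Cells were extracted in cold 80% methanol with acetic acid and d3-SAM internal standard. SAM was quantified by LC-MS/MS MRM (m/z 399.2→250.1).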

HCT116 MTAP−/− = test: Inhibition of cellular proliferation (Cell Titer Glo), HCT116 MTAP−/−; format: cell-based, human; settings: Homo sapiens, HCT-116, 96 h, 4 days, IC50 score, read-out: 4 Day Relative Growth Inhibition (MTAP −/−; Example 277)
In short: (§1)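 Isogenic HCT116 lines, MTAP+/+ and MTAP−/−, treated 24 h after plating with 10-point 3-fold compound dilutions including DMSO only, then grown 4 days at 37 °C/5% CO2. Cell Titer Glo ATP luminescence, blank-subtracted and normalised to 0.2% DMSO control, gave percent change in proliferation versus log concentration.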

HCT116 MTAP+/+ = test: Inhibition of cellular proliferation (Cell Titer Glo), HCT116 MTAP+/+; format: cell-based, human; settings: Homo sapiens, HCT-116, 96 h, 4 days, IC50 score, read-out: 4 Day Relative Growth Inhibition (MTAP +/+; Example 277)
In short: as §1

| IC50 (MAT2A homodimer) | IC50 [1] | IC50 (HCT116 MTAP−/−) | IC50 (HCT116 MTAP+/+) | SMILES |
| --- | --- | --- | --- | --- |
| < 100 nM | < 100 nM | 100 to 10000 nM | 100 to 10000 nM | CCOc1cnc2cn(-c3ccc(OC)cc3)c(=O)c(-c3ccc(OC(F)F)cc3)c2n1 [Example 150-A] |
| < 100 nM | < 100 nM | < 100 nM | 100 to 10000 nM | Cn1cnc2ccc(-n3cc4cnc(NCC(F)(F)F)nc4c(-c4ccc(OC(F)F)cc4)c3=O)cc21 [Example 151, 8-(4-(difluoromethoxy)phenyl)-6-(1-methyl-1H-benzo[d]imidazol-6-yl)-2-((2,2,2-trifluoroethyl)amino)pyrido[4,3-d]pyrimidin-7(6H)-one] |
| < 100 nM | < 100 nM | < 100 nM | > 10000 nM | CCn1cc2cc(-n3cc4cnc(NCC(F)(F)F)nc4c(-c4ccc(OC(F)F)cc4)c3=O)ccc2n1 [Example 152, 8-(4-(difluoromethoxy)phenyl)-6-(2-ethyl-2H-indazol-5-yl)-2-((2,2,2-trifluoroethyl)amino)pyrido[4,3-d]pyrimidin-7(6H)-one] |
| < 100 nM | < 100 nM | < 100 nM | > 10000 nM | CC(C)n1cc2cc(-n3cc4cnc(NCC(F)(F)F)nc4c(-c4ccc(OC(F)F)cc4)c3=O)ccc2n1 [Example 153, 8-(4-(difluoromethoxy)phenyl)-6-(2-isopropyl-2H-indazol-5-yl)-2-((2,2,2-trifluoroethyl)amino)pyrido[4,3-d]pyrimidin-7(6H)-one] |
| < 100 nM | 100 to 1000 nM | 100 to 10000 nM | 100 to 10000 nM | Cn1cc(-n2cc3cnc(NCC(F)(F)F)nc3c(-c3ccc(OC(F)F)cc3)c2=O)ccc1=O [Example 155, 8-(4-(difluoromethoxy)phenyl)-6-(1-methyl-6-oxo-1,6-dihydropyridin-3-yl)-2-((2,2,2-trifluoroethyl)amino)pyrido[4,3-d]pyrimidin-7(6H)-one] |
| < 100 nM | < 100 nM | < 100 nM | > 10000 nM | O=c1c(-c2ccc(OC(F)F)cc2)c2nc(NCC(F)(F)F)ncc2cn1-c1ccc2ncsc2c1 [Example 156, 6-(benzo[d]thiazol-6-yl)-8-(4-(difluoromethoxy)phenyl)-2-((2,2,2-trifluoroethyl)amino)pyrido[4,3-d]pyrimidin-7(6H)-one] |
| < 100 nM | < 100 nM | 100 to 10000 nM | > 10000 nM | O=c1c(-c2ccc(OC(F)F)cc2)c2nc(NCC(F)(F)F)ncc2cn1-c1ccc2nccn2c1 [Example 157, 8-(4-(difluoromethoxy)phenyl)-6-(imidazo[1,2-a]pyridin-6-yl)-2-((2,2,2-trifluoroethyl)amino)pyrido[4,3-d]pyrimidin-7(6)-one] |
| < 100 nM | < 100 nM | < 100 nM | > 10000 nM | Cc1c2cc(-n3cc4cnc(NCC(F)(F)F)nc4c(-c4ccc(OC(F)F)cc4)c3=O)ccc2nn1C [Example 158, 8-(4-(difluoromethoxy)phenyl)-6-(2,3-dimethyl-2H-indazol-5-yl)-2-((2,2,2-trifluoroethyl)amino)pyrido[4,3-d]pyrimidin-7(6H)-one] |
| < 100 nM | < 100 nM | < 100 nM | 100 to 10000 nM | O=c1c(-c2ccc(OC(F)F)cc2)c2nc(NCC(F)(F)F)ncc2cn1-c1ccc2ncccc2c1 [Example 159, 8-(4-(difluoromethoxy)phenyl)-6-(quinolin-6-yl)-2-((2,2,2-trifluoroethyl)amino)pyrido[4,3-d]pyrimidin-7(6H)-one] |
| < 100 nM | < 100 nM | < 100 nM | > 10000 nM | Cn1cc2cc(-n3cc4cnc(NCC(F)(F)F)nc4c(-c4ccc(OC(F)(F)F)cc4)c3=O)ccc2n1 [Example 160, 6-(2-methyl-2H-indazol-5-yl)-2-((2,2,2-trifluoroethyl)amino)-8-(4-(trifluoromethoxy)phenyl)pyrido[4,3-d]pyrimidin-7(6H)-one] |
| < 100 nM | < 100 nM | < 100 nM | > 10000 nM | Cn1cc2cc(-n3cc4cnc(NCC(F)(F)F)nc4c(-c4ccc(C(F)(F)F)cc4)c3=O)ccc2n1 [Example 161, 6-(2-methyl-2H-indazol-5-yl)-2-((2,2,2-trifluoroethyl)amino)-8-(4-(trifluoromethyl)phenyl)pyrido[4,3-d]pyrimidin-7(6H)-one] |
| < 100 nM | < 100 nM | < 100 nM | > 10000 nM | O=c1c(-c2ccc(C3CC3)cc2)c2nc(NCC(F)(F)F)ncc2cn1-c1ccc2ncsc2c1 [Example 166, 6-(benzo[d]thiazol-6-yl)-8-(4-cyclopropylphenyl)-2-((2,2,2-trifluoroethyl)amino)pyrido[4,3-d]pyrimidin-7(6)-one] |
| < 100 nM | 100 to 1000 nM | 100 to 10000 nM | > 10000 nM | COc1ccc(-n2cc3cnc(NCC(F)(F)F)nc3c(-c3ccc(C4CC4)cc3)c2=O)cc1 [Example 167, 8-(4-cyclopropylphenyl)-6-(4-methoxyphenyl)-2-((2,2,2-trifluoroethyl)amino)pyrido[4,3-d]pyrimidin-7(6)-one] |
| < 100 nM | < 100 nM | < 100 nM | > 10000 nM | O=c1c(-c2ccc(C3CC3)cc2)c2nc(NCC(F)(F)F)ncc2cn1-c1ccc2ncccc2c1 [Example 168, 8-(4-cyclopropylphenyl)-6-(quinolin-6-yl)-2-((2,2,2-trifluoroethyl)amino)pyrido[4,3-d]pyrimidin-7(6)-one] |
| < 100 nM | < 100 nM | < 100 nM | > 10000 nM | CCNc1ncc2cn(-c3ccc4nn(C)cc4c3)c(=O)c(-c3ccc(Cl)cc3)c2n1 [Example 169, 8-(4-chlorophenyl)-2-(ethylamino)-6-(2-methyl-2H-indazol-5-yl)pyrido[4,3-d]pyrimidin-7(6H)-one] |
| < 100 nM | < 100 nM | < 100 nM | > 10000 nM | CCNc1ncc2cn(-c3ccc4nn(C)cc4c3)c(=O)c(-c3ccc(OC(F)F)cc3)c2n1 [Example 171, 8-(4-(difluoromethoxy)phenyl)-2-(ethylamino)-6-(2-methyl-2H-indazol-5-yl)pyrido[4,3-d]pyrimidin-7(6H)-one] |
| < 100 nM | < 100 nM | < 100 nM | > 10000 nM | Cn1cc2cc(-n3cc4cnc(NC5CC5)nc4c(-c4ccc(OC(F)F)cc4)c3=O)ccc2n1 [Example 172, 2-(cyclopropylamino)-8-(4-(difluoromethoxy)phenyl)-6-(2-methyl-2H-indazol-5-yl)pyrido[4,3-d]pyrimidin-7(6H)-one] |
| < 100 nM | < 100 nM | 100 to 10000 nM | > 10000 nM | COc1ccc(-c2c(=O)n(-c3ccc4c(c3)OCCO4)cc3cnc(NCC(F)(F)F)nc23)cc1 [Example 177, 6-(2,3-dihydrobenzo[b][1,4]dioxin-6-yl)-8-(4-methoxyphenyl)-2-((2,2,2-trifluoroethyl)amino)pyrido[4,3-d]pyrimidin-7(6H)-one] |
| < 100 nM | < 100 nM | 100 to 10000 nM | 100 to 10000 nM | O=c1c(-c2ccc(OC(F)F)cc2)c2nc(NCC(F)(F)F)ncc2cn1-c1ccc2c(c1)OCCO2 [Example 178, 8-(4-(difluoromethoxy)phenyl)-6-(2,3-dihydrobenzo[b][1,4]dioxin-6-yl)-2-((2,2,2-trifluoroethyl)amino)pyrido[4,3-d]pyrimidin-7(6H)-one] |
| < 100 nM | 100 to 1000 nM | 100 to 10000 nM | > 10000 nM | O=c1c(-c2ccc(OC(F)F)cc2)c2nc(NC3CC3)ncc2cn1-c1ccc2ncccc2c1 [Example 179, 2-(cyclopropylamino)-8-(4-(difluoromethoxy)phenyl)-6-(quinolin-6-yl)pyrido[4,3-d]pyrimidin-7(6)-one] |
| < 100 nM | < 100 nM | < 100 nM | > 10000 nM | O=c1c(-c2ccc(Br)cc2)c2nc(NCC(F)(F)F)ncc2cn1-c1ccc2ncccc2c1 [Example 180, 8-(4-bromophenyl)-6-(quinolin-6-yl)-2-((2,2,2-trifluoroethyl)amino)pyrido[4,3-d]pyrimidin-7(6H)-one] |
| < 100 nM | < 100 nM | 100 to 10000 nM | > 10000 nM | COc1ccc(-c2c(=O)n(-c3ccc4ncccc4c3)cc3cnc(NCC(F)(F)F)nc23)cc1 [Example 181, 8-(4-methoxyphenyl)-6-(quinolin-6-yl)-2-((2,2,2-trifluoroethyl)amino)pyrido[4,3-d]pyrimidin-7(6H)-one] |
| < 100 nM | < 100 nM | 100 to 10000 nM | > 10000 nM | CC(C)Nc1ncc2cn(-c3ccc4ncccc4c3)c(=O)c(-c3ccc(OC(F)F)cc3)c2n1 [Example 182, 8-(4-(difluoromethoxy)phenyl)-2-(isopropylamino)-6-(quinolin-6-yl)pyrido[4,3-d]pyrimidin-7(6)-one] |
